Measurements as given in BindingDB's records for doi:10.1002/cbic.201402579 (2015).

Target: Cyclin-dependent kinase 2 (Homo sapiens, UniProt P24941)
Experiment: Protein Kinase Assay
Conditions: pH 7.5; 30 °C
Protocol: We incubated human recombinant CDK2/cyclin A with small molecules at the indicatedconcentrations in buffer A (Tris HCl (25 mm, pH 7.5), MgCl2 (10 mm), EGTA (1 mm), DTT (1 mm), heparin ([…])) containing histone H1 (1 mg/mL), […] and [g-33P]ATP (15 mm, 3,000 Cimmol^-1; 10 mCi/mL) in a […]. After 30 min incubation at 30 C , we stopped the reaction by using a MicroBeta FilterMate-96 Harvester and P81 phosphocellulose papers , which we washed in phosphoric acid (1 %). We added scintillation fluid, and we measured the radioactivity in a counter with microplate robotic stackers. We calculated kinase activity as picomoles of phosphate incorporated during the 30 min incubation. We evaluated percentage kinase activity as the amount compared to that measured in the absence of inhibitors.

Row | Compound | Kd
1 | NNc1ncnc2sc3c(c12)CCCC3 [4-hydrazino-5,6,7,8-tetrahydro[1]benzothieno[2,3-d]pyrimidine (A)] | 28.3 µM
2 | NNc1ncnc2sc3c(c12)CCCCC3 [4-hydrazino-6,7,8,9-tetrahydro-5H-cyclohepta[4,5]thieno[2,3-d]pyrimidine (A1)] | 32.5 µM
3 | NNc1ncnc2sc3c(c12)CCC3 [7,8-dihydro-6H-cyclopenta[4,5]thieno[1,2-c]pyrimidin-1-yldiazane] | 287 µM
4 | CC(=O)OCc1cc(O)c2c(c1)C(=O)c1cccc(O)c1C2=O [11-O-acetyl-aloe-emodin] | 17.8 µM
5 | O=C(O)c1cc(O)c2c(c1)C(=O)c1cccc(O)c1C2=O [RHEIN] | 9.6 µM
